US20230398130A1, “METHODS AND COMPOSITIONS FOR DIFFERENTIATING STEM CELLS” (Massachusetts Institute of Technology, priority 2020, published 2023)
Structures can show the parent of a compound that is named as a salt.

How the values were obtained:
[1] = test system: ISC-enriched organoids; experiment: Primary screen, 384-well 2.5-D organoid differentiation (ENR+CD, 6 days): basal lysozyme secretion (LYZ.NS); type: cell-based, murine; details: for Dose.FC.LYZ.NS: FC vs plate median; for SSMD.LYZ.NS: strictly standardized mean difference
Text: (§1) High-throughput screening.

[2] = test system: ISC-enriched organoids; experiment: Primary screen, 384-well 2.5-D organoid differentiation (ENR+CD, 6 days, Target Selective Inhibitor Library, vs whole-plate median): ATP (CellTiter-Glo 3D, CTG); details: for Dose.FC.CTG: FC vs plate median; for SSMD.CTG: strictly standardized mean difference
[3] = test system: ISC-enriched organoids; experiment: Primary screen, 384-well 2.5-D organoid differentiation (ENR+CD, 6 days): carbachol-induced lysozyme secretion (LYZ.S); type: cell-based, murine; details: primary screen; for Dose.FC.LYZ.S: FC vs plate median; for Z.LYZ.S: standard z score; for SSMD.LYZ.S: strictly standardized mean difference
Text: as §1

[4] = Dose 0.08 uM, standard z score of FC
[5] = Dose 0.40 uM, standard z score of FC
[6] = Dose 2.00 uM, standard z score of FC
[7] = Dose 10.00 uM, standard z score of FC
[8] = Dose 0.08 uM, primary screen, standard z score
[9] = Dose 0.40 uM, primary screen, standard z score
[10] = Dose 2.00 uM, primary screen, standard z score
[11] = Dose 10.00 uM, primary screen, standard z score
[12] = primary screen, 1st of the 4 dose lines of the treatment (dose not given)
[13] = primary screen, 2nd of the 4 dose lines of the treatment (dose not given)
[14] = primary screen, 3rd of the 4 dose lines of the treatment (dose not given)
[15] = primary screen, 4th of the 4 dose lines of the treatment (dose not given)
[16] = 1st of the 4 dose lines of the treatment (dose not given)
[17] = 2nd of the 4 dose lines of the treatment (dose not given)
[18] = 3rd of the 4 dose lines of the treatment (dose not given)
[19] = 4th of the 4 dose lines of the treatment (dose not given)

| Compound | Z.CTG [2, 4] | Z.CTG [2, 5] | Z.CTG [2, 6] | Z.CTG [2, 7] | SSMD.LYZ.NS [1, 12] | SSMD.LYZ.NS [1, 13] | SSMD.LYZ.NS [1, 14] | SSMD.LYZ.NS [1, 15] | SSMD.CTG [2, 12] | SSMD.CTG [2, 13] | SSMD.CTG [2, 14] | SSMD.CTG [2, 15] | Z.LYZ.S [3, 16] | Z.LYZ.S [3, 17] | Z.LYZ.S [3, 18] | Z.LYZ.S [3, 19] | SSMD.LYZ.S [3, 16] | SSMD.LYZ.S [3, 17] | SSMD.LYZ.S [3, 18] | SSMD.LYZ.S [3, 19] | further results |
| --- | --- | --- | --- | --- | --- | --- | --- | --- | --- | --- | --- | --- | --- | --- | --- | --- | --- | --- | --- | --- | --- |
| S=C=Nc1cccc(NC(=S)NCCCCNC(=S)Nc2cccc(N=C=S)c2)c1 [MRS 2578] | −0.339 | 0.146 | −0.381 | −0.544 | – | – | – | – | – | – | – | – | – | – | – | – | – | – | – | – | Dose.FC.LYZ.NS ([1]; Dose 0.08 uM, primary screen): 0.116 log 2 fold change; Z.LYZ.NS [1, 4]: 1.011; Dose.FC.LYZ.NS ([1]; Dose 0.40 uM, primary screen): 0.036 log 2 fold change; Z.LYZ.NS [1, 5]: 0.311; Dose.FC.LYZ.NS ([1]; Dose 2.00 uM, primary screen): 0.031 log 2 fold change; Z.LYZ.NS [1, 6]: 0.270; Dose.FC.LYZ.NS ([1]; Dose 10.00 uM, primary screen): 0.032 log 2 fold change; Z.LYZ.NS [1, 7]: 0.276; Dose.FC.CTG ([2]; Dose 0.08 uM, primary screen): −0.142 log 2 fold change; Dose.FC.CTG ([2]; Dose 0.40 uM, primary screen): 0.061 log 2 fold change; Dose.FC.CTG ([2]; Dose 2.00 uM, primary screen): −0.159 log 2 fold change; Dose.FC.CTG ([2]; Dose 10.00 uM, primary screen): −0.228 log 2 fold change; Dose.FC.LYZ.S ([3]; Dose 0.08 uM): 0.095 log 2 fold change; Dose.FC.LYZ.S ([3]; Dose 0.40 uM): 0.067 log 2 fold change; Dose.FC.LYZ.S ([3]; Dose 2.00 uM): 0.023 log 2 fold change; Dose.FC.LYZ.S ([3]; Dose 10.00 uM): 0.013 log 2 fold change |
| COc1cc(-n2c(=S)[nH]c3ccccc3c2=O)c(Cl)cc1Cl [Mdivi-1] | – | – | – | – | 0.715 | 0.481 | −0.093 | −1.749 | 0.026 | −0.072 | −0.356 | −1.838 | 0.511 | 0.196 | −0.310 | −2.655 | 0.520 | 0.152 | −0.196 | −2.328 | Dose.FC.LYZ.NS ([1]; Dose 0.08 uM, primary screen): 0.177 log 2 fold change; Z.LYZ.NS [1, 8]: 1.537; Dose.FC.LYZ.NS ([1]; Dose 0.40 uM, primary screen): 0.156 log 2 fold change; Z.LYZ.NS [1, 9]: 1.358; Dose.FC.LYZ.NS ([1]; Dose 2.00 uM, primary screen): −0.022 log 2 fold change; Z.LYZ.NS [1, 10]: −0.194; Dose.FC.LYZ.NS ([1]; Dose 10.00 uM, primary screen): −0.268 log 2 fold change; Z.LYZ.NS [1, 11]: −2.333; Dose.FC.CTG ([2]; Dose 0.08 uM, primary screen): 0.008 log 2 fold change; Z.CTG [2, 8]: 0.019; Dose.FC.CTG ([2]; Dose 0.40 uM, primary screen): −0.031 log 2 fold change; Z.CTG [2, 9]: −0.074; Dose.FC.CTG ([2]; Dose 2.00 uM, primary screen): −0.112 log 2 fold change; Z.CTG [2, 10]: −0.267; Dose.FC.CTG ([2]; Dose 10.00 uM, primary screen): −0.527 log 2 fold change; Z.CTG [2, 11]: −1.259; Dose.FC.LYZ.S ([3]; Dose 0.08 uM): 0.079 log 2 fold change; Dose.FC.LYZ.S ([3]; Dose 0.40 uM): 0.030 log 2 fold change; Dose.FC.LYZ.S ([3]; Dose 2.00 uM): −0.048 log 2 fold change; Dose.FC.LYZ.S ([3]; Dose 10.00 uM): −0.411 log 2 fold change |
| CC12CC3CC(C)(C1)CC(N)(C3)C2 [Memantine HCl] | – | – | – | – | 0.489 | 0.038 | 0.745 | −0.407 | 0.214 | 0.219 | −0.016 | 0.145 | 0.586 | 0.112 | 0.328 | −0.138 | 0.420 | 0.134 | 0.292 | −0.142 | Z.CTG [2, 8]: 0.199; Z.CTG [2, 9]: 0.173; Z.CTG [2, 10]: −0.018; Z.CTG [2, 11]: 0.184 |
| CN(Cc1cnc2nc(N)nc(N)c2n1)c1ccc(C(=O)N[C@@H](CCC(=O)O)C(=O)O)cc1 [Methotrexate] | – | – | – | −1.534 | −0.745 | −0.349 | −1.130 | −0.527 | −1.489 | −1.028 | −1.982 | −1.176 | −1.029 | −0.831 | −1.143 | −1.007 | −0.943 | −0.627 | −0.866 | −0.718 | Z.CTG [2, 8]: −1.469; Z.CTG [2, 9]: −1.724; Z.CTG [2, 10]: −1.674 |
| Nc1nc(CC(=O)Nc2ccc(CCNC[C@H](O)c3ccccc3)cc2)cs1 [Mirabegron] | 0.069 | −0.801 | 0.046 | −0.123 | 1.039 | −0.280 | −0.346 | 0.113 | 0.101 | −0.380 | 0.068 | −0.150 | 0.958 | −0.103 | −0.317 | −0.065 | 0.863 | −0.090 | −0.363 | −0.064 | – |
| O=C(NCCN1CCOCC1)c1ccc(Cl)cc1 [Moclobemide (Ro 111163)] | 0.348 | 0.252 | 0.276 | 0.100 | 0.302 | 0.415 | 0.007 | −0.219 | 0.257 | 0.148 | 0.227 | 0.115 | 0.953 | 0.607 | 0.078 | 0.123 | 0.495 | 0.348 | 0.056 | 0.135 | Dose.FC.LYZ.NS ([1]; Dose 0.08 uM, primary screen): 0.075 log 2 fold change; Z.LYZ.NS [1, 4]: 0.654; Dose.FC.LYZ.NS ([1]; Dose 0.40 uM, primary screen): 0.121 log 2 fold change; Z.LYZ.NS [1, 5]: 1.055; Dose.FC.LYZ.NS ([1]; Dose 2.00 uM, primary screen): 0.001 log 2 fold change; Z.LYZ.NS [1, 6]: 0.011; Dose.FC.LYZ.NS ([1]; Dose 10.00 uM, primary screen): −0.028 log 2 fold change; Z.LYZ.NS [1, 7]: −0.243; Dose.FC.CTG ([2]; Dose 0.08 uM, primary screen): 0.146 log 2 fold change; Dose.FC.CTG ([2]; Dose 0.40 uM, primary screen): 0.106 log 2 fold change; Dose.FC.CTG ([2]; Dose 2.00 uM, primary screen): 0.116 log 2 fold change; Dose.FC.CTG ([2]; Dose 10.00 uM, primary screen): 0.042 log 2 fold change; Dose.FC.LYZ.S ([3]; Dose 0.08 uM): 0.147 log 2 fold change; Dose.FC.LYZ.S ([3]; Dose 0.40 uM): 0.094 log 2 fold change; Dose.FC.LYZ.S ([3]; Dose 2.00 uM): 0.012 log 2 fold change; Dose.FC.LYZ.S ([3]; Dose 10.00 uM): 0.019 log 2 fold change |
| Cc1ccccc1C(=O)Nc1ccc(C(=O)N2CCCC(N(C)C)c3ccccc32)cc1 (centres unmarked) [Mozavaptan] | 0.765 | 0.562 | 0.259 | −0.803 | 0.283 | −0.203 | 0.340 | −1.544 | 0.521 | 0.427 | 0.274 | −0.812 | 0.557 | 1.068 | 0.688 | −1.745 | 0.266 | 0.560 | 0.775 | −1.480 | – |
| FC(F)(F)c1ccc(/C=C/c2nc(COc3ccc(CCCCn4ccnn4)cc3)co2)cc1 [Mubritinib (TAK 165)] | −1.252 | −0.812 | −1.265 | −1.240 | – | – | – | – | – | – | – | – | – | – | – | – | – | – | – | – | Dose.FC.LYZ.NS ([1]; Dose 0.08 uM, primary screen): −0.057 log 2 fold change; Z.LYZ.NS [1, 4]: −0.500; Dose.FC.LYZ.NS ([1]; Dose 0.40 uM, primary screen): −0.194 log 2 fold change; Z.LYZ.NS [1, 5]: −1.687; Dose.FC.LYZ.NS ([1]; Dose 2.00 uM, primary screen): −0.224 log 2 fold change; Z.LYZ.NS [1, 6]: −1.950; Dose.FC.LYZ.NS ([1]; Dose 10.00 uM, primary screen): −0.240 log 2 fold change; Z.LYZ.NS [1, 7]: −2.092; Dose.FC.CTG ([2]; Dose 0.08 uM, primary screen): −0.524 log 2 fold change; Dose.FC.CTG ([2]; Dose 0.40 uM, primary screen): −0.340 log 2 fold change; Dose.FC.CTG ([2]; Dose 2.00 uM, primary screen): −0.530 log 2 fold change; Dose.FC.CTG ([2]; Dose 10.00 uM, primary screen): −0.519 log 2 fold change; Dose.FC.LYZ.S ([3]; Dose 0.08 uM): −0.119 log 2 fold change; Dose.FC.LYZ.S ([3]; Dose 0.40 uM): −0.154 log 2 fold change; Dose.FC.LYZ.S ([3]; Dose 2.00 uM): −0.299 log 2 fold change; Dose.FC.LYZ.S ([3]; Dose 10.00 uM): −0.294 log 2 fold change |
| CCCCCCCCCCCCCCCCn1cc[n+](Cc2ccccc2)c1C.[I-] [NH125] | −0.829 | −1.213 | −2.641 | −4.268 | – | – | – | – | – | – | – | – | – | – | – | – | – | – | – | – | Dose.FC.LYZ.NS ([1]; Dose 0.08 uM, primary screen): −0.035 log 2 fold change; Z.LYZ.NS [1, 4]: −0.301; Dose.FC.LYZ.NS ([1]; Dose 0.40 uM, primary screen): −0.188 log 2 fold change; Z.LYZ.NS [1, 5]: −1.634; Dose.FC.LYZ.NS ([1]; Dose 2.00 uM, primary screen): −0.219 log 2 fold change; Z.LYZ.NS [1, 6]: −1.904; Dose.FC.LYZ.NS ([1]; Dose 10.00 uM, primary screen): −0.263 log 2 fold change; Z.LYZ.NS [1, 7]: −2.293; Dose.FC.CTG ([2]; Dose 0.08 uM, primary screen): −0.347 log 2 fold change; Dose.FC.CTG ([2]; Dose 0.40 uM, primary screen): −0.508 log 2 fold change; Dose.FC.CTG ([2]; Dose 2.00 uM, primary screen): −1.106 log 2 fold change; Dose.FC.CTG ([2]; Dose 10.00 uM, primary screen): −1.787 log 2 fold change; Dose.FC.LYZ.S ([3]; Dose 0.08 uM): −0.114 log 2 fold change; Dose.FC.LYZ.S ([3]; Dose 0.40 uM): −0.237 log 2 fold change; Dose.FC.LYZ.S ([3]; Dose 2.00 uM): −0.358 log 2 fold change; Dose.FC.LYZ.S ([3]; Dose 10.00 uM): −0.374 log 2 fold change |
